Data taken from ChEMBL document CHEMBL1201862, “PubChem BioAssay data set” (2004).
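96-well plates; 48 h exposure; 5 concentrations. Endpoints by linear interpolation between flanking doses. Not reached: highest tested concentration assigned. Abbreviation: GI50, concentration required for 50% inhibition of growth.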 Calls of active or inactive are those of the source. No stated cut-off is given here; in the data, active = GI50 up to about 1.1 µM and inactive = higher.

What was measured:
Assay in all cases: NCI tumour cell line growth inhibition, 48 h
786-0 = test system: 786-0
A498 = test system: A498
A549 = test system: A549
ACHN = test system: ACHN
BT-549 = test system: BT-549
CAKI-1 = test system: CAKI-1
CCRF-CEM = test system: CCRF-CEM
COLO 205 = test system: COLO 205
DU-145 = test system: DU-145
EKVX = test system: EKVX
HCT-116 = test system: HCT-116
HCT-15 = test system: HCT-15
HL-60 = test system: HL-60
HOP-92 = test system: HOP-92
HT-29 = test system: HT-29
Hs-578T = test system: Hs-578T
IGROV-1 = test system: IGROV-1
K562 = test system: K562
KM12 = test system: KM12
M14 = test system: M14
MDA-MB-231 = test system: MDA-MB-231
MDA-MB-435 = test system: MDA-MB-435
MDA-N = test system: MDA-N
MOLT-4 = test system: MOLT-4
Malme-3M = test system: Malme-3M
NCI-H226 = test system: NCI-H226
NCI-H23 = test system: NCI-H23
NCI-H460 = test system: NCI-H460
NCI-H522 = test system: NCI-H522
NCI/ADR-RES = test system: NCI/ADR-RES
OVCAR-4 = test system: OVCAR-4
OVCAR-5 = test system: OVCAR-5
OVCAR-8 = test system: OVCAR-8
PC-3 = test system: PC-3
RPMI-8226 = test system: RPMI-8226
SF-268 = test system: SF-268
SF-295 = test system: SF-295
SF-539 = test system: SF-539
SK-MEL-28 = test system: SK-MEL-28
SK-MEL-2 = test system: SK-MEL-2
SK-MEL-5 = test system: SK-MEL-5
SK-OV-3 = test system: SK-OV-3
SN12C = test system: SN12C
SNB-19 = test system: SNB-19
SR = test system: SR
SW-620 = test system: SW-620
T47D = test system: T47D
TK-10 = test system: TK-10
U-251 = test system: U-251
UACC-257 = test system: UACC-257
UACC-62 = test system: UACC-62
UO-31 = test system: UO-31
HCC 2998 = test system: HCC 2998
HOP-62 = test system: HOP-62
LOX IMVI = test system: LOX IMVI
MCF7 = test system: MCF7
SNB-75 = test system: SNB-75
OVCAR-3 = test system: OVCAR-3
RXF 393 = test system: RXF 393

Question: CCOC(=O)c1cnc(-n2[nH]c3c(c2=O)CCCC3)[nH]c1=O was tested. Which GI50 (786-0) did it give?
Answer: 60 µM (inactive)

Question: What about the GI50 (A498) of the same compound?
Answer: 62.8 µM (inactive)

Question: What about the GI50 (A549) of the same compound?
Answer: 63.1 µM (inactive)

Question: And the GI50 (ACHN)?
Answer: 50.2 µM (inactive)

Question: What about the GI50 (BT-549) of the same compound?
Answer: 47.1 µM (inactive)

Question: And the GI50 (CAKI-1)?
Answer: 48.1 µM (inactive)

Question: And the GI50 (CCRF-CEM)?
Answer: 28.8 µM (inactive)

Question: And the GI50 (COLO 205)?
Answer: 26.2 µM (inactive)

Question: What about the GI50 (DU-145) of the same compound?
Answer: 57.9 µM (inactive)

Question: And the GI50 (EKVX)?
Answer: 80.4 µM (inactive)

Question: And the GI50 (HCT-116)?
Answer: 36.4 µM (inactive)

Question: What about the GI50 (HCT-15) of the same compound?
Answer: 44.1 µM

Question: What about the GI50 (HL-60) of the same compound?
Answer: 28.1 µM (inactive)

Question: And the GI50 (HOP-92)?
Answer: 0.859 µM (active)

Question: What about the GI50 (HT-29) of the same compound?
Answer: 40.4 µM (inactive)

Question: What about the GI50 (Hs-578T) of the same compound?
Answer: > 100 µM (inactive)

Question: And the GI50 (IGROV-1)?
Answer: > 100 µM (inactive)

Question: And the GI50 (K562)?
Answer: 20.7 µM (inactive)

Question: And the GI50 (KM12)?
Answer: 67.5 µM (inactive)

Question: What about the GI50 (M14) of the same compound?
Answer: 36.4 µM (inactive)

Question: What about the GI50 (MDA-MB-231) of the same compound?
Answer: 57.1 µM (inactive)

Question: And the GI50 (MDA-MB-435)?
Answer: 47.8 µM (inactive)

Question: What about the GI50 (MDA-N) of the same compound?
Answer: 86.1 µM (inactive)

Question: And the GI50 (MOLT-4)?
Answer: 43 µM (inactive)

Question: And the GI50 (Malme-3M)?
Answer: 77.6 µM (inactive)

Question: What about the GI50 (NCI-H226) of the same compound?
Answer: 47.1 µM (inactive)

Question: What about the GI50 (NCI-H23) of the same compound?
Answer: 72.8 µM (inactive)

Question: And the GI50 (NCI-H460)?
Answer: 45.5 µM (inactive)

Question: And the GI50 (NCI-H522)?
Answer: 52.4 µM (inactive)

Question: And the GI50 (NCI/ADR-RES)?
Answer: 34.8 µM (inactive)

Question: What about the GI50 (OVCAR-4) of the same compound?
Answer: 57.5 µM (inactive)

Question: And the GI50 (OVCAR-5)?
Answer: 82.4 µM (inactive)

Question: And the GI50 (OVCAR-8)?
Answer: 37.5 µM (inactive)

Question: And the GI50 (PC-3)?
Answer: 57.4 µM (inactive)

Question: What about the GI50 (RPMI-8226) of the same compound?
Answer: 52.7 µM (inactive)

Question: And the GI50 (SF-268)?
Answer: 55.8 µM (inactive)

Question: And the GI50 (SF-295)?
Answer: 62.7 µM (inactive)

Question: What about the GI50 (SF-539) of the same compound?
Answer: 48.1 µM (inactive)

Question: And the GI50 (SK-MEL-28)?
Answer: 20.9 µM (inactive)

Question: What about the GI50 (SK-MEL-2) of the same compound?
Answer: 42.6 µM (inactive)

Question: What about the GI50 (SK-MEL-5) of the same compound?
Answer: 75.2 µM (inactive)

Question: What about the GI50 (SK-OV-3) of the same compound?
Answer: 80.5 µM (inactive)

Question: And the GI50 (SN12C)?
Answer: 52.5 µM (inactive)

Question: What about the GI50 (SNB-19) of the same compound?
Answer: > 100 µM (inactive)

Question: What about the GI50 (SR) of the same compound?
Answer: 13.3 µM (inactive)

Question: And the GI50 (SW-620)?
Answer: 35.2 µM (inactive)

Question: And the GI50 (T47D)?
Answer: > 100 µM (inactive)

Question: And the GI50 (TK-10)?
Answer: > 100 µM (inactive)

Question: And the GI50 (U-251)?
Answer: 39.7 µM (inactive)

Question: What about the GI50 (UACC-257) of the same compound?
Answer: 32.4 µM (inactive)

Question: What about the GI50 (UACC-62) of the same compound?
Answer: 29.6 µM (inactive)

Question: And the GI50 (UO-31)?
Answer: 54.6 µM (inactive)

Question: What does the source list for COc1ccc(C(=O)/C=C/c2ccc(OCCSCCCCCCCCCCSCCOc3ccc(/C=C/C(=O)c4ccc(OC)c(OC)c4)cc3)cc2)cc1OC?
Answer: GI50 (786-0): > 100 µM (inactive); GI50 (A498): > 100 µM (inactive); GI50 (A549): > 100 µM (inactive); GI50 (ACHN): > 100 µM (inactive); GI50 (BT-549): > 100 µM (inactive); GI50 (CAKI-1): > 100 µM (inactive); GI50 (CCRF-CEM): > 100 µM (inactive); GI50 (COLO 205): > 100 µM (inactive); GI50 (DU-145): > 100 µM (inactive); GI50 (EKVX): > 100 µM (inactive); GI50 (HCC 2998): > 100 µM (inactive); GI50 (HCT-116): > 100 µM (inactive); GI50 (HCT-15): > 100 µM; GI50 (HL-60): > 100 µM (inactive); GI50 (HOP-62): > 100 µM (inactive); GI50 (HT-29): > 100 µM (inactive); GI50 (Hs-578T): > 100 µM (inactive); GI50 (IGROV-1): > 100 µM (inactive); GI50 (K562): > 100 µM (inactive); GI50 (KM12): > 100 µM (inactive); GI50 (LOX IMVI): > 100 µM (inactive); GI50 (M14): > 100 µM (inactive); GI50 (MCF7): > 100 µM (inactive); GI50 (MDA-MB-231): > 100 µM (inactive); GI50 (MDA-MB-435): > 100 µM (inactive); GI50 (MDA-N): > 100 µM (inactive); GI50 (MOLT-4): > 100 µM (inactive); GI50 (Malme-3M): > 100 µM (inactive); GI50 (NCI-H23): > 100 µM (inactive); GI50 (NCI-H460): > 100 µM (inactive); GI50 (NCI-H522): 73.8 µM (inactive); GI50 (OVCAR-8): > 100 µM (inactive); GI50 (PC-3): > 100 µM (inactive); GI50 (RPMI-8226): > 100 µM (inactive); GI50 (SF-268): > 100 µM (inactive); GI50 (SF-295): > 100 µM (inactive); GI50 (SF-539): > 100 µM (inactive); GI50 (SK-MEL-28): > 100 µM (inactive); GI50 (SK-MEL-5): > 100 µM (inactive); GI50 (SK-OV-3): > 100 µM (inactive); GI50 (SN12C): > 100 µM (inactive); GI50 (SNB-75): > 100 µM (inactive); GI50 (SR): > 100 µM (inactive); GI50 (SW-620): > 100 µM (inactive); GI50 (T47D): > 100 µM (inactive); GI50 (TK-10): > 100 µM (inactive); GI50 (UACC-257): > 100 µM (inactive); GI50 (UACC-62): > 100 µM (inactive)

Question: What does the source list for CC(C)C(C/C=C1\CC(CO)(COC(=O)c2ccccc2)OC1=O)C(C)C (stereo not given)?
Answer: GI50 (786-0): 14.8 µM (inactive); GI50 (A498): 21.3 µM (inactive); GI50 (A549): 15.8 µM (inactive); GI50 (ACHN): 16.7 µM (inactive); GI50 (BT-549): 21.7 µM (inactive); GI50 (CAKI-1): 18.7 µM (inactive); GI50 (CCRF-CEM): 12.1 µM (inactive); GI50 (COLO 205): 11.5 µM (inactive); GI50 (EKVX): 14.9 µM (inactive); GI50 (HCC 2998): 22.4 µM (inactive); GI50 (HCT-116): 17.2 µM (inactive); GI50 (HCT-15): 21.6 µM; GI50 (HOP-62): 13.7 µM (inactive); GI50 (HOP-92): 13.4 µM (inactive); GI50 (HT-29): 19.1 µM (inactive); GI50 (Hs-578T): 13.1 µM (inactive); GI50 (IGROV-1): 20.7 µM (inactive); GI50 (K562): 12 µM (inactive); GI50 (KM12): 17.5 µM (inactive); GI50 (LOX IMVI): 19.5 µM (inactive); GI50 (M14): 14.8 µM (inactive); GI50 (MCF7): 20.9 µM (inactive); GI50 (MDA-MB-231): 21.3 µM (inactive); GI50 (MDA-MB-435): 84.9 µM (inactive); GI50 (MDA-N): 21.2 µM (inactive); GI50 (MOLT-4): 18.2 µM (inactive); GI50 (Malme-3M): 16.8 µM (inactive); GI50 (NCI-H226): 19.8 µM (inactive); GI50 (NCI-H23): 20.2 µM (inactive); GI50 (NCI-H460): 15.8 µM (inactive); GI50 (NCI-H522): 21.6 µM (inactive); GI50 (NCI/ADR-RES): 20.7 µM (inactive); GI50 (OVCAR-3): 21.2 µM (inactive); GI50 (OVCAR-4): 18.8 µM (inactive); GI50 (OVCAR-5): 14.3 µM (inactive); GI50 (OVCAR-8): 19.2 µM (inactive); GI50 (PC-3): 15.8 µM (inactive); GI50 (RXF 393): 23 µM (inactive); GI50 (SF-268): 19 µM (inactive); GI50 (SF-295): 14.5 µM (inactive); GI50 (SK-MEL-28): 16.3 µM (inactive); GI50 (SK-MEL-2): > 100 µM (inactive); GI50 (SK-MEL-5): 10.4 µM (inactive); GI50 (SK-OV-3): 28.1 µM (inactive); GI50 (SN12C): 17.2 µM (inactive); GI50 (SNB-19): 17.9 µM (inactive); GI50 (SNB-75): 15.3 µM (inactive); GI50 (SR): 32.2 µM (inactive); GI50 (SW-620): 18 µM (inactive); GI50 (T47D): 93.8 µM (inactive); GI50 (TK-10): 19 µM (inactive); GI50 (U-251): 19.1 µM (inactive); GI50 (UACC-257): 27.6 µM (inactive); GI50 (UACC-62): > 100 µM (inactive); GI50 (UO-31): 17.4 µM (inactive)
